The record followed here is ChEMBL document CHEMBL5137043, “trans, trans-2-C-Aryl-3,4-dihydroxypyrrolidines as potent and selective β-glucosidase inhibitors: Pharmacological chaperones for Gaucher disease” (Eur J Med Chem, 2022).

The subject of one assay is Saccharomyces cerevisiae. Briefly: Inhibition of yeast alpha-glucosidase assessed as reduction of p-nitrophenol release using p-nitrophenyl-glycoside as substrate at 1000 uM by spectrophotometric analysis.
Assay [1] deals with Lysosomal alpha-glucosidase (Rattus norvegicus) (UniProt Q6P7A9). Briefly: Inhibition of rat small intestinal maltase assessed as reduction of D-glucose release using maltose as substrate at 1000 uM by colorimetric analysis. The format is tissue-based. The following applies: Small intestine.
The test system of the next assay is Prunus dulcis. Nature of the assay: Inhibition of almond beta-glucosidase assessed as reduction of p-nitrophenol release using p-nitrophenyl-glycoside as substrate at 1000 uM by spectrophotometric analysis.
Assay [2] is filed under the species Bos taurus. Nature of the assay: Inhibition of bovine liver beta-glucosidase assessed as reduction of p-nitrophenol release using p-nitrophenyl-glycoside as substrate at 1000 uM by spectrophotometric analysis.
Assay [3] deals with Alpha-galactosidase (Coffea arabica) (UniProt Q42656). Nature of the assay: Inhibition of coffee beans alpha-galactosidase assessed as reduction of p-nitrophenol release using p-nitrophenyl-glycoside as substrate at 1000 uM by spectrophotometric analysis.
The species entered for assay [4] is Bos taurus. Briefly: Inhibition of bovine liver beta-galactosidase assessed as reduction of p-nitrophenol release using p-nitrophenyl-glycoside as substrate at 1000 uM by spectrophotometric analysis.
In assay [5] the target is T1, Alpha-mannosidase (Canavalia ensiformis) (UniProt C0HJB3).
T1 sequence (whole entry): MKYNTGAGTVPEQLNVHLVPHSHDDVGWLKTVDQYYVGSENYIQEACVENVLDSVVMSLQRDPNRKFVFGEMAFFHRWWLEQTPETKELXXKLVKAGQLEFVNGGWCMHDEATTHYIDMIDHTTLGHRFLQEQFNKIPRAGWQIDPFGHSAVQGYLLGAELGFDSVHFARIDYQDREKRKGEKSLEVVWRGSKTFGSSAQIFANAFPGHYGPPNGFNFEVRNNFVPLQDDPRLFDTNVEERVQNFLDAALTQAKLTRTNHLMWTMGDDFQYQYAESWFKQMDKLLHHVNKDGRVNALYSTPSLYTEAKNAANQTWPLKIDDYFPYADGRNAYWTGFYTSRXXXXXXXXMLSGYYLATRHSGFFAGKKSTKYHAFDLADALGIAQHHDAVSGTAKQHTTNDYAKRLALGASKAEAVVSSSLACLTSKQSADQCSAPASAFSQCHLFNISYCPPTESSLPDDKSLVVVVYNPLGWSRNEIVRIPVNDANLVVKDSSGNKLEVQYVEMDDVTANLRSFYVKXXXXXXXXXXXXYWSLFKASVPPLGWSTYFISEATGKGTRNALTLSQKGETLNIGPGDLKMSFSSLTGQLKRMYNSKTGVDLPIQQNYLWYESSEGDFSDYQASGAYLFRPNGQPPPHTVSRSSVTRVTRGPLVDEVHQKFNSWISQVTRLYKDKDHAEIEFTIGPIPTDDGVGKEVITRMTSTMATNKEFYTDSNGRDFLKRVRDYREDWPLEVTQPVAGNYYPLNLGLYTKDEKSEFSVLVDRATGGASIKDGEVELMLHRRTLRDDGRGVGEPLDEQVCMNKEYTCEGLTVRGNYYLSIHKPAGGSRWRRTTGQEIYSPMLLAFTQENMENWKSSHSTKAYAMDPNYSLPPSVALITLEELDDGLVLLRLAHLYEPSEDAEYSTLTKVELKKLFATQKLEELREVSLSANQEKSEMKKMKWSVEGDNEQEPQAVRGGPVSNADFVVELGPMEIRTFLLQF
Briefly: Inhibition of jack bean alpha-mannosidase assessed as reduction of p-nitrophenol release using p-nitrophenyl-glycoside as substrate at 1000 uM by spectrophotometric analysis.

For a further assay, the system named is Helix pomatia. Briefly: Inhibition of snail beta-mannosidase assessed as reduction of p-nitrophenol release using p-nitrophenyl-glycoside as substrate at 1000 uM by spectrophotometric analysis.
The target of assay [6] is T2, Tissue alpha-L-fucosidase (Bos taurus) (UniProt Q2KIM0).
T2 sequence (whole entry): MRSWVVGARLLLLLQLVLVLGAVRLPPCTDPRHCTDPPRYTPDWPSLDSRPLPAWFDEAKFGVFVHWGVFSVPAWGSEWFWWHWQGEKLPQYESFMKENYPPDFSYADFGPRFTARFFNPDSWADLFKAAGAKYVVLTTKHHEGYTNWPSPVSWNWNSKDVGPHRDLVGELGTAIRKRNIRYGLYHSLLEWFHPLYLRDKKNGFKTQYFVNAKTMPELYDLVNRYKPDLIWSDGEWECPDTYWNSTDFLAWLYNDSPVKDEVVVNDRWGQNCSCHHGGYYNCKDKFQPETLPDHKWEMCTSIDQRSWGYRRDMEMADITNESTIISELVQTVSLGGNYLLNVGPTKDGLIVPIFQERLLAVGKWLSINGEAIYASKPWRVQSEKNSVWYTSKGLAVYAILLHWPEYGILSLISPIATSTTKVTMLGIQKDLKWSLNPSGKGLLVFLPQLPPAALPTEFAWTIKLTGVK
Nature of the assay: Inhibition of bovine kidney alpha-L-fucosidase assessed as reduction of p-nitrophenol release using p-nitrophenyl-glycoside as substrate at 1000 uM by spectrophotometric analysis. The format is tissue-based.

The species entered for a further assay is Sus scrofa. Briefly: Inhibition of porcine kidney alpha-trehalase assessed as reduction of p-nitrophenol release using p-nitrophenyl-glycoside as substrate at 1000 uM by spectrophotometric analysis. In kind it is tissue-based.
Another assay relates to Aspergillus niger. Nature of the assay: Inhibition of Aspergillus niger amyloglucosidase assessed as reduction of p-nitrophenol release using p-nitrophenyl-glycoside as substrate at 1000 uM by spectrophotometric analysis.
The test system of a further assay is Penicillium decumbens. Briefly: Inhibition of Penicillium decumbens alpha-L-rhamnosidase assessed as reduction of p-nitrophenol release using p-nitrophenyl-glycoside as substrate at 1000 uM by spectrophotometric analysis.
The next assay deals with Escherichia coli. Briefly: Inhibition of Escherichia coli beta-glucuronidase assessed as reduction of p-nitrophenol release using p-nitrophenyl-glycoside as substrate at 1000 uM by spectrophotometric analysis.
The species named for assay [7] is Bos taurus. Nature of the assay: Inhibition of bovine liver beta-glucuronidase assessed as reduction of p-nitrophenol release using p-nitrophenyl-glycoside as substrate at 1000 uM by spectrophotometric analysis.
Assay [8] deals with Lysosomal alpha-glucosidase (Homo sapiens) (UniProt P10253). Nature of the assay: Inhibition of human lysosomal alpha-glucosidase assessed as reduction of p-nitrophenol release using p-nitrophenyl-glycoside as substrate at 1000 uM by spectrophotometric analysis. As to conditions: Lysosome.
Assay [9] has as its target T3, Lysosomal acid glucosylceramidase (Homo sapiens, UniProt P04062).
T3 sequence (P04062 whole entry): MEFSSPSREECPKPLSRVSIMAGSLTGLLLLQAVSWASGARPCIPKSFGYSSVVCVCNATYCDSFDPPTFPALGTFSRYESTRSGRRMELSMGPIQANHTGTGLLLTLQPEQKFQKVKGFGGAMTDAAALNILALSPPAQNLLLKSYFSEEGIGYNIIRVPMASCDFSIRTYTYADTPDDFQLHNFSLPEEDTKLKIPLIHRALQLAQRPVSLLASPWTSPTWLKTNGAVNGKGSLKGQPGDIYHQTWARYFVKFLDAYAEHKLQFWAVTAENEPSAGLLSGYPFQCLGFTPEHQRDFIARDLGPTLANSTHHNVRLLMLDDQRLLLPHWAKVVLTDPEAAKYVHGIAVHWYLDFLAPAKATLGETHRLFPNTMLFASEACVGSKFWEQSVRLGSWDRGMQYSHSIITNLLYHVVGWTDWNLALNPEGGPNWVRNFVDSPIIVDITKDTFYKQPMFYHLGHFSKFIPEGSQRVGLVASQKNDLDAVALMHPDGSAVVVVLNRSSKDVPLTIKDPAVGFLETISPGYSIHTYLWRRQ
Briefly: Inhibition of human GCase.

In a further assay the test system is Oryza sativa. Nature of the assay: Inhibition of rice alpha-glucosidase assessed as reduction of p-nitrophenol release using p-nitrophenyl-glycoside as substrate at 1000 uM by spectrophotometric analysis.
Assay [10] addresses Sucrase-isomaltase, intestinal (Rattus norvegicus, UniProt P23739). Nature of the assay: Inhibition of rat small intestinal sucrase assessed as reduction of p-nitrophenol release using p-nitrophenyl-glycoside as substrate by spectrophotometric analysis. The format is tissue-based, Small intestine.
Assay [11] is described as follows: Inhibition of human lysosomal beta-glucosidase assessed as reduction of p-nitrophenol release using p-nitrophenyl-glycoside as substrate by spectrophotometric analysis. In kind it is subcellular, Lysosome.
A short description of assay [12]: Inhibition of bovine liver beta-galactosidase assessed as reduction of p-nitrophenol release using p-nitrophenyl-glycoside as substrate by spectrophotometric analysis. On the set-up: species or system Bos taurus.
The nature of assay [13]: Inhibition of Escherichia coli beta-glucuronidase assessed as reduction of p-nitrophenol release using p-nitrophenyl-glycoside as substrate by spectrophotometric analysis.
A short description of assay [14]: Inhibition of almond beta-glucosidase assessed as reduction of p-nitrophenol release using p-nitrophenyl-glycoside as substrate by spectrophotometric analysis. On the set-up: species or system Prunus dulcis.
A short description of assay [15]: Inhibition of rice alpha-glucosidase assessed as reduction of p-nitrophenol release using p-nitrophenyl-glycoside as substrate by spectrophotometric analysis. More on the design: species or system Oryza sativa.

Sequence of Sucrase-isomaltase, intestinal (P23739 1-1013 limits assumed): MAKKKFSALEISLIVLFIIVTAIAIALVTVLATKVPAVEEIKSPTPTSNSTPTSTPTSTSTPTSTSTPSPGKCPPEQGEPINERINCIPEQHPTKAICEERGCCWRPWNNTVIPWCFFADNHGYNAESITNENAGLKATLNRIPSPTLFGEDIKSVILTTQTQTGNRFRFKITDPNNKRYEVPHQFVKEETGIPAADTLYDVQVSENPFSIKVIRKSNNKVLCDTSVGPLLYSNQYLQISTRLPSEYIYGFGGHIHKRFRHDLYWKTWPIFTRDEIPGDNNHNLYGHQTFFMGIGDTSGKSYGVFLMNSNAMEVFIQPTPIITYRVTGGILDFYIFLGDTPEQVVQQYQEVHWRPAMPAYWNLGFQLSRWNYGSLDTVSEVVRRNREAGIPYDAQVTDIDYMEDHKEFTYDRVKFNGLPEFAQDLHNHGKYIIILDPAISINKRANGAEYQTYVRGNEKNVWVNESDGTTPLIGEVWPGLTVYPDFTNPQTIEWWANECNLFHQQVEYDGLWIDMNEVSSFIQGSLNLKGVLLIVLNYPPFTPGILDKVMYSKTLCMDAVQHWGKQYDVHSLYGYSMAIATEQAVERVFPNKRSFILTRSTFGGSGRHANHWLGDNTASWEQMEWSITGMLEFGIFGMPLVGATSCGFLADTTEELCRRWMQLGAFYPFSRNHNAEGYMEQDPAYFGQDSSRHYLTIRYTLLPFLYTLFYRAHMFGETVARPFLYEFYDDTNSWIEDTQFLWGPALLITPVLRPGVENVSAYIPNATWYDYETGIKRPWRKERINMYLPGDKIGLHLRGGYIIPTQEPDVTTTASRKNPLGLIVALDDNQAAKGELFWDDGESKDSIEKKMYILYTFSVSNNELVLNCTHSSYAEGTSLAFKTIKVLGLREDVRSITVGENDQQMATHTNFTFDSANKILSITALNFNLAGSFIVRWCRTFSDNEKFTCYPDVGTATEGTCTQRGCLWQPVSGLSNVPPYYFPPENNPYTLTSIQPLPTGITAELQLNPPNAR
Sequence of Sucrase-isomaltase, intestinal (P23739 1014-1841 limits assumed): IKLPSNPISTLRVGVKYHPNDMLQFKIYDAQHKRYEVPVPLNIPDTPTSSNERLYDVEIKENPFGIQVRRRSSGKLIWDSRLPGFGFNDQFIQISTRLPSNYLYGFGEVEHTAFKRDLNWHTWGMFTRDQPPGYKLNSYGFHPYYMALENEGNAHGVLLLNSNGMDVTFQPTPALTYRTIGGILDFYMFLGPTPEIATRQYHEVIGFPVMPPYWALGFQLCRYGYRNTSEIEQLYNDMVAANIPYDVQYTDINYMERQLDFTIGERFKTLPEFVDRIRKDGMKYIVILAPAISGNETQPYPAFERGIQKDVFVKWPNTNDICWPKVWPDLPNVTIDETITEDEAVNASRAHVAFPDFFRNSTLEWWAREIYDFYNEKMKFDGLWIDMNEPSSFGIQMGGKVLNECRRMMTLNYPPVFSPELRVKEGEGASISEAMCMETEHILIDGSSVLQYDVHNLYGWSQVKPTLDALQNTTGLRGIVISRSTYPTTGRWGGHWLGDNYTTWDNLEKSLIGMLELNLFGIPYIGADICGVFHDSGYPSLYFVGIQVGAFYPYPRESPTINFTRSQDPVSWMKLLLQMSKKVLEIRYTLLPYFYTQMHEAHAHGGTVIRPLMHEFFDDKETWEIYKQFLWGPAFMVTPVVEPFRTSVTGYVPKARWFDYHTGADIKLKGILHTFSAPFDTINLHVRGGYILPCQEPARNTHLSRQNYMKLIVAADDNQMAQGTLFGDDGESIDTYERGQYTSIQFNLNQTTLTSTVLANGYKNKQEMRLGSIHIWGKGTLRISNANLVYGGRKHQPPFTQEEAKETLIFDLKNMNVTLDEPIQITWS
Sequence of Lysosomal alpha-glucosidase (Rattus norvegicus) (Q6P7A9 whole entry): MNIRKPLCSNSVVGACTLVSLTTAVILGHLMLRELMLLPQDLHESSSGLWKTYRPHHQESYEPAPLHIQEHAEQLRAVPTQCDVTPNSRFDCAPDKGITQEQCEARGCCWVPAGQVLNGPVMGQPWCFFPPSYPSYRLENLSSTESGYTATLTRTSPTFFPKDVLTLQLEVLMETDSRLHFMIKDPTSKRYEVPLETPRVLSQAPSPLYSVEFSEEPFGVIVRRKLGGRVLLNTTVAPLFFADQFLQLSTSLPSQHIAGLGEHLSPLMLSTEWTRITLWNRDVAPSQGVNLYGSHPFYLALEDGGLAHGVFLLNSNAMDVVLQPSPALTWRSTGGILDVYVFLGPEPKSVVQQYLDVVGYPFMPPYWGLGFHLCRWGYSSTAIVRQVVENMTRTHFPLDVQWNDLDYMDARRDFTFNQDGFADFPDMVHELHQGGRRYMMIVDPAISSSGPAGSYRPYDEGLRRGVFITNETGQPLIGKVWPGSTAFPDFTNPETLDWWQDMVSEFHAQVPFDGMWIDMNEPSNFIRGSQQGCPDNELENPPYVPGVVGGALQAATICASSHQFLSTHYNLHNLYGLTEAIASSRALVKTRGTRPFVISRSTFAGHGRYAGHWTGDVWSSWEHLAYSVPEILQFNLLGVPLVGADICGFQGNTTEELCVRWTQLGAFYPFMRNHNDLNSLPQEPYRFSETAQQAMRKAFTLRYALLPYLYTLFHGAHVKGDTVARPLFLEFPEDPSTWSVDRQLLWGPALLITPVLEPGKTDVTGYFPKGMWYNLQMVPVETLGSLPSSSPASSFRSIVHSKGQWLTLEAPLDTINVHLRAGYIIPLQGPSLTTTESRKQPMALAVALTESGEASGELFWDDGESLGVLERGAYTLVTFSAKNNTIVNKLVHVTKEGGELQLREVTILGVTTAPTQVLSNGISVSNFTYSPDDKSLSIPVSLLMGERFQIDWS
Sequence of Alpha-galactosidase (Coffea arabica) (Q42656 16-378 limits assumed): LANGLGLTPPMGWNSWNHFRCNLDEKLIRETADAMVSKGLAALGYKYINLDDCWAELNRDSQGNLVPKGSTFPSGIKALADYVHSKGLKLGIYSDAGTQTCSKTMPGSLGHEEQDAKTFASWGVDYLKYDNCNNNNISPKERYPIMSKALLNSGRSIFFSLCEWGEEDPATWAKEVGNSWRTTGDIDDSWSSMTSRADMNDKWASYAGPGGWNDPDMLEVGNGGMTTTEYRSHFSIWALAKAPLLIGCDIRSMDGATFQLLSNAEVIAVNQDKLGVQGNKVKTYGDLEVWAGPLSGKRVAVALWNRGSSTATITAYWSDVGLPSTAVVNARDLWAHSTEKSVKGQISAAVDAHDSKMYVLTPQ

In the case of `O[C@@H]1[C@@H](O)CN[C@H]1c1ccccc1` [listing 1 of 2 here], the inhibition in the assay on Saccharomyces cerevisiae is 0.3%; in assay [1], 16.5%; in the assay on Prunus dulcis, 3.4%; in the assay filed under Bos taurus [2], 31.7%; in assay [3] it was 2.6%; in the assay filed under Bos taurus [4], 49%. The inhibition in assay [5] was found to be 2%; in the assay on Helix pomatia, 1.1%; in [6], 0%; in the assay filed under Sus scrofa it was 5.7%; in the assay on Aspergillus niger it was 0%; in the assay on Penicillium decumbens it was 1.8%. Besides, the inhibition came to 8.5% with Escherichia coli, 15% in the assay listed under Bos taurus [7] and 24.6% in assay [8].

Turning to `CCCCCCCCCC1NC[C@@H](O)[C@H](O)[C@H]1O` (some centres undefined), the 50% inhibitory concentration (IC50) in [9] turned out to be 0.0068 µM.

Regarding `CCCCCCO[C@H]1CNC[C@@H](O)[C@@H]1O`, in assay [9], the concentration for half-maximal inhibition (IC50) was 0.009 µM.

Regarding `Cc1ccc([C@@H]2NC[C@H](O)[C@H]2O)cc1`, the inhibition in the assay with Saccharomyces cerevisiae stood at 5.3%; with Oryza sativa, 15.8%; in assay [1], 23.1%; in the assay on Prunus dulcis, 11%; in the assay filed under Bos taurus [2], 46.4%; in assay [3] it was 0%. Besides, the inhibition in assay [5] came out at 0.4%; in the assay on Helix pomatia, 2.2%; in [6], 0%; in the assay filed under Sus scrofa it was 17.6%; with Aspergillus niger, 2.3%; with Penicillium decumbens it was 2.3%. Besides, the inhibition in the assay listed under Bos taurus [7] was 0.3%; in assay [8], 4.8%. The 50% inhibitory concentration (IC50) in [10] worked out at 389 µM; in assay [11] it was 8.7 µM; in assay [12] it was 470 µM; in assay [13], 610 µM.

Take `Cc1ccc([C@H]2NC[C@@H](O)[C@@H]2O)cc1`: the inhibition with Saccharomyces cerevisiae came to 11%; in the assay with Oryza sativa it was 22.8%; in assay [1], 24.6%; in the assay on Prunus dulcis, 13.5%; in the assay listed under Bos taurus [2], 38.2%; in assay [3], 0%. Moreover, the inhibition in assay [5] was 0%; with Helix pomatia, 1.9%; in assay [6], 4.2%; in the assay listed under Sus scrofa, 0%; in the assay with Aspergillus niger, 0%; in the assay with Penicillium decumbens, 2.8%. Besides, the inhibition is 0.3% in the assay listed under Bos taurus [7] and 15% in assay [8]. For the same molecule, the IC50 turned out to be 1210 µM in assay [10], 3.4 µM in assay [11], 602 µM in assay [12] and 269 µM in [13].

`O[C@H]1[C@H](O)CN[C@@H]1CCCc1ccccc1`: the inhibition worked out at 28.5% in the assay on Saccharomyces cerevisiae; 38% in the assay on Oryza sativa; 42.1% in the assay listed under Bos taurus [2]; 0% in assay [3]; 20.6% in assay [5]; 5.6% with Helix pomatia. Besides, the inhibition in assay [6] was 6.2%; in the assay listed under Sus scrofa, 5.3%; in the assay with Aspergillus niger, 0%; with Penicillium decumbens, 8.3%; in the assay filed under Bos taurus [7], 0.3%; in [8], 26.5%. In addition, the IC50 was 264 µM in assay [10]; 565 µM in [14]; 3.1 µM in assay [11]; 578 µM in assay [12]; 910 µM in [13].

`O[C@@H]1[C@@H](O)CN[C@H]1c1ccc(F)cc1`: the inhibition with Saccharomyces cerevisiae was 8.6%; in the assay on Oryza sativa, 41.8%; in assay [1], 25.6%; in the assay with Prunus dulcis, 12.6%; in the assay filed under Bos taurus [2], 14.8%; in [3], 16.6%. In addition, the inhibition in the assay listed under Bos taurus [4] worked out at 25.2%; in assay [5] it was 1.2%; in the assay with Helix pomatia, 2.2%; in [6], 0%; in the assay filed under Sus scrofa it was 6.5%; in the assay on Aspergillus niger it was 0%. The inhibition is 8.3% in the assay on Penicillium decumbens, 26.8% in the assay on Escherichia coli, 0% in the assay listed under Bos taurus [7] and 30% in assay [8]. In addition, the IC50 was 117 µM in assay [10] and 13 µM in assay [11].

For the molecule `O[C@H]1[C@H](O)CN[C@@H]1c1ccc(F)cc1`, the inhibition with Saccharomyces cerevisiae is 5.6%; in the assay with Oryza sativa, 47.3%; in assay [1], 14%; in the assay with Prunus dulcis, 15%; in the assay listed under Bos taurus [2], 29%; in assay [3], 2%. Also, the inhibition is 39.9% in the assay filed under Bos taurus [4]; 0.8% in assay [5]; 4.8% in the assay with Helix pomatia; 0% in assay [6]; 1.6% in the assay filed under Sus scrofa; 0% in the assay on Aspergillus niger. Also, the inhibition with Penicillium decumbens came out at 0%; in the assay on Escherichia coli it was 43.4%; in the assay listed under Bos taurus [7], 2%; in [8] it was 13.4%. Further, the figures for the half-maximal inhibitory concentration (IC50) in [10] and in assay [11] were 339 µM and 6.2 µM, respectively.

With `O[C@@H]1[C@@H](O)CN[C@H]1c1ccccc1` [listing 2 of 2 here], the IC50 is 560 µM in [15], 603 µM in assay [10] and 22 µM in [11].
